For 6 compounds, IC50 results are on record in BindingDB's records for doi:10.7270/Q2TH8K43 (Burnham Center For Chemical Genomics, 2010).

SMILES strings stand for the structures.

As a reminder, the IC50 is the point on the concentration scale where inhibition reaches its midpoint.

This experiment deals with Nucleotide-binding oligomerization domain-containing protein 2 (Homo sapiens, UniProt Q9HC29). Put plainly: PubChem AID 2334.
Sequence of Nucleotide-binding oligomerization domain-containing protein 2 (Q9HC29 whole entry, the tested form may be a part): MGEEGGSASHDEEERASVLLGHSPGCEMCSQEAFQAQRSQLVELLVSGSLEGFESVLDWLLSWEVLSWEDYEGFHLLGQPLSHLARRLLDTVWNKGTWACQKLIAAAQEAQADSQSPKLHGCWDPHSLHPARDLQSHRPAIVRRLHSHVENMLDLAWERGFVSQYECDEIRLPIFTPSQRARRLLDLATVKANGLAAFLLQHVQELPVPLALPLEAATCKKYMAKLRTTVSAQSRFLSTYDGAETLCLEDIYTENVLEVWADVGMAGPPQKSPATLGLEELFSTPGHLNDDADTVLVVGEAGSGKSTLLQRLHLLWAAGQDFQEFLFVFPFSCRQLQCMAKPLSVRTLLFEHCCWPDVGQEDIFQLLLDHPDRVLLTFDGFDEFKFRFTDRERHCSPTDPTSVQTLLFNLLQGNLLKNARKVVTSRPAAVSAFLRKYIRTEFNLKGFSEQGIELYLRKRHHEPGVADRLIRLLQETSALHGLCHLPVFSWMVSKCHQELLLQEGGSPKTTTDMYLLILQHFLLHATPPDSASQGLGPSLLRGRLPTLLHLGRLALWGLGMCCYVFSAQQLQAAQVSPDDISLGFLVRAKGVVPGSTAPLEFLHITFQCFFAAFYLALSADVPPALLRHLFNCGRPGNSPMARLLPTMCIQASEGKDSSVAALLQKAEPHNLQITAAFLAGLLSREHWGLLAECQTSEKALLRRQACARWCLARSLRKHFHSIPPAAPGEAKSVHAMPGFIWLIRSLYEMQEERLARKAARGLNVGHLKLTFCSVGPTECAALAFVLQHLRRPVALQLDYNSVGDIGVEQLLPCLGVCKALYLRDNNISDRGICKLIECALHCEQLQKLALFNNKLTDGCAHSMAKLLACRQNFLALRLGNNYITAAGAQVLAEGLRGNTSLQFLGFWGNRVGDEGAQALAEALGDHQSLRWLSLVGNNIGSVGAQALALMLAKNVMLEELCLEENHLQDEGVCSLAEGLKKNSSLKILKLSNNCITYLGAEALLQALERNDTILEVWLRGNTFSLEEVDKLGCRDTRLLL
On to `Cc1ccc(O)c(/N=C/C2=CC(Cc3ccccc3)C=C([N+](=O)[O-])C2=O)c1` (stereo unspecified) [(6E)-6-[[(5-methyl-2-oxidanyl-phenyl)amino]methylidene]-2-nitro-4-(phenylmethyl)cyclohexa-2,4-dien-1-one], for which the half-maximal inhibitory concentration (IC50) was > 20 µM.
For `N#CC(C(=O)COC(=O)CSc1ccc(Cl)cc1)c1nc2ccccc2[nH]1` (stereo unspecified) [MLS-0208254.0001], the IC50 is > 20 µM.
The result for `Cc1ccc(C)c(SCC(=O)OCC(=O)C(C#N)c2nc3ccccc3[nH]2)c1` (stereo unspecified) [MLS000392255] reads > 20 µM; that for `Cc1cc(Br)ccc1SCC(=O)OCC(=O)C(C#N)c1nc2ccccc2[nH]1` (stereo unspecified) [2-[(4-bromo-2-methylphenyl)thio]acetic acid [3-cyano-3-(1,3-dihydrobenzimidazol-2-ylidene)-2-oxopropyl] ester], > 20 µM.
Turning to `N#CC(C(=O)COC(=O)CSc1ccc2ccccc2c1)c1nc2ccccc2[nH]1` (stereo unspecified) [[3-cyano-3-(1,3-dihydrobenzimidazol-2-ylidene)-2-oxopropyl] 2-naphthalen-2-ylsulfanylacetate], the IC50 is > 20 µM.
The result for `Cc1cc(SCC(=O)OCC(=O)C(C#N)c2nc3ccccc3[nH]2)c(C)cc1Br` (stereo unspecified) reads > 20 µM.
